Read-outs that look alike come from different tables or passages of the source.
Legend:
[1] = biological target: T1, glucagon receptor (GCGR) (Homo sapiens, UniProt P47871); experiment: I125-glucagon binding assay (competition, GCGR membrane fractions)
T1 construct: expressed in transfected cells; host or cells: CHO-K1 cells overexpressing GCGR (membrane fractions)
Method in brief: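 Membranes from CHO-K1 cells overexpressing GCGR, 7.5 μg/well in 50 mM Tris pH 7.4 with 0.5% BSA, were preincubated 5 min with serially diluted compounds, then given 0.0625 nM final I^125-glucagon for 30 min at 25° C. Bound label was filtered on PEI-coated GF/B and counted; IC50 by non-linear regression.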

[2] = biological target: T2, glucagon receptor (GCGR) overexpressed CHO-K1 cells or human primary hepatocytes (Homo sapiens, UniProt P47871); experiment: Glucagon cAMP inhibition assay (Cisbio cAMP Dynamic 2 HTRF); assay type: cell-based
T2 construct: expressed in transfected cells; host or cells: GCGR overexpressed CHO-K1 cells or human primary hepatocytes (endogenous receptor)
T2 sequence (P47871 26-477): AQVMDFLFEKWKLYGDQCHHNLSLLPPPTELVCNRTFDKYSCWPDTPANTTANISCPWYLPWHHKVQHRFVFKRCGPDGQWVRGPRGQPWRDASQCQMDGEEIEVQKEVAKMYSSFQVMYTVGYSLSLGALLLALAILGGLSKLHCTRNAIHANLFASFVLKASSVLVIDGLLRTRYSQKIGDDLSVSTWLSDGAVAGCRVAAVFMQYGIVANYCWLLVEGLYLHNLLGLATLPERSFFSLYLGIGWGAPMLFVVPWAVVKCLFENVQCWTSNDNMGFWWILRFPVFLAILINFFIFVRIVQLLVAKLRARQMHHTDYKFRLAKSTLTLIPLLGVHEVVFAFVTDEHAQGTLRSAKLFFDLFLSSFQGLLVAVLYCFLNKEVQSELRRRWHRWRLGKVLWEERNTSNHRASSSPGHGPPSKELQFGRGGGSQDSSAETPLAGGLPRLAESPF
Method in brief: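 GCGR-overexpressing CHO-K1 cells or human primary hepatocytes in HBSS with 0.1% BSA and 800 nM IBMX, pre-incubated 30 min with serially diluted compounds (1% DMSO final), then stimulated 30 min at room temperature with glucagon at its EC50. cAMP measured by HTRF after 60 min lysis; IC50 by non-linear regression.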

[3] = competition with I125-glucagon 0.0625 nM, membrane fractions of GCGR overexpressed CHO-K1 cells
[4] = inhibition of glucagon (EC50 concentration) induced cAMP production

T1 sequence (P47871 26-477): as above

| Structure (SMILES) | IC50 [1] | IC50 [1, 3] | IC50 cAMP [2, 4] | IC50 cAMP [2] | also measured |
| --- | --- | --- | --- | --- | --- |
| CCOC(=O)CCNC(=O)c1ccc(N[C@H](Cc2ccc(-c3cc4ccccc4o3)cc2)C(=O)NC(C)C)cc1 [Compound 24-21, Ethyl (R)-3-(4-((3-(4-(benzofuran-2-yl)phenyl)-1-(isopropylamino)-1-oxopropan-2-yl)amino)benzamido)propanoate] | 4.1 µM |  |  |  | IC50 cAMP ([2]; uM): >10 µM |
| O=C(O)CCNC(=O)c1ccc(NC(COc2ccc(-c3cc4ccccc4o3)cc2)c2ccccc2)cc1 (centres unmarked) [Compound 1-23, 3-(4-((2-(4-(benzofuran-2-yl)phenoxy)-1-phenylethyl)amino)benzamido) propanoic Acid] |  | 0.148 µM | 0.0398 µM |  |  |
| Cc1cc(OC[C@@H](Nc2ccc(C(=O)NCCC(=O)O)cc2)C(C)C)cc(C)c1-c1ccc(C(F)(F)F)cc1Cl [Compound 2-11, (S)-3-(4-((1-((2′-chloro-2,6-dimethyl-4′-(trifluoromethyl)-[1,1′-biphenyl]-4-yl)oxy)-3-methylbutan-2-yl)amino)benzamido)propanoic Acid] |  | 0.872 µM | 0.2772 µM |  |  |
| CCCC[C@@H](COc1cnc(-c2ccc(Cl)cc2Cl)nc1)Nc1ccc(C(=O)NCCC(=O)O)cc1 [Compound 12-7, (S)-3-(4-((1-((2-(2,4-dichlorophenyl)pyrimidin-5-yl)oxy)hexan-2-yl)amino)benzamido)propanoic Acid] |  | 0.888 µM | 3.868 µM |  |  |
| CC(C)(C)[C@@H](COc1ccc(-c2ccc(Cl)cc2Cl)c(F)c1)Nc1ccc(C(=O)NCCC(=O)O)cc1 [Compound 8-22, (S)-3-(4-((1-((2′,4′-dichloro-2-fluoro-[1,1′-biphenyl]-4-yl)oxy)-3,3-dimethylbutan-2-yl)amino)benzamido)propanoic Acid] |  | 0.068 µM | 0.1669 µM |  |  |
| CC(C)[C@@H](COc1ccc(-c2ccc(C(F)(F)F)nn2)cc1)Nc1ccc(C(=O)NCCC(=O)O)cc1 [Compound 1-29, (S)-3-(4-((3-methyl-1-(4-(6-(trifluoromethyl)pyridazin-3-yl)phenoxy)butan-2-yl)amino)benzamido)propanoic Acid] |  | 2.79 µM | >30 µM |  |  |
| CCOC(=O)CCNC(=O)c1ccc(N[C@@H](CC(C)C)C(=O)Nc2ccc(-c3cc4ccccc4s3)cc2)cc1 [Compound 23-11, Ethyl (S)-3-(4-((1-((4-(benzo[b]thiophen-2-yl)phenyl)amino)-4-methyl-1-oxopentan-2-yl)amino)benzamido)propanoate] |  |  |  | 6.8 µM | IC50 ([1]; uM): > 10 µM |
| CC[C@H](C)[C@@H](COc1ccc(-c2cc3ccccc3o2)nc1)Nc1ccc(C(=O)NCCC(=O)O)cc1 [Compound 10-13, 3-(4-(((2S,3S)-1-((6-(benzofuran-2-yl)pyridin-3-yl)oxy)-3-methylpentan-2-yl)amino)benzamido)propanoic Acid] |  | 0.224 µM | 0.8639 µM |  |  |
| C[C@@H](Cc1ccc(-c2ccc(C(F)(F)F)cc2)cc1)Nc1ccc(C(=O)NCCC(=O)O)cc1 [Compound 19-3, (S)-3-(4-((1-(4′-(trifluoromethyl)-[1,1′-biphenyl]-4-yl)propan-2-yl)amino)benzamido)propanoic Acid] | 2.73 µM |  |  | 2.719 µM |  |
| CC(C)(C)[C@@H](COc1ccc(-c2cc3ccccc3o2)c(F)c1)Nc1ccc(C(=O)NCCC(=O)O)cc1 [Compound 8-21, (S)-3-(4-((1-(4-(benzofuran-2-yl)-3-fluorophenoxy)-3,3-dimethylbutan-2-yl)amino)benzamido)propanoic Acid] |  | 0.111 µM | 0.181 µM |  |  |
| CCOC(=O)CCNC(=O)c1ccc(N[C@@H](Cc2ccccc2)C(=O)Nc2ccc(-c3ccc(Cl)cc3Cl)cc2)cc1 [Compound 23-15, Ethyl (S)-3-(4-((1-((2′,4′-dichloro-[1,1′-biphenyl]-4-yl)amino)-1-oxo-3-phenylpropan-2-yl)amino)benzamido)propanoate] |  |  |  | 6.3 µM | IC50 ([1]; uM): > 10 µM |
| CCCC[C@@H](COc1nnc(-c2ccc(C(F)(F)F)cc2F)o1)Nc1ccc(C(=O)NCCC(=O)O)cc1 [Compound 22-3, (S)-3-(4-((1-((5-(2-fluoro-4-(trifluoromethyl)phenyl)-1,3,4-oxadiazol-2-yl)oxy)hexan-2-yl)amino)benzamido)propanoic Acid] | 13.6 µM |  |  | >30 µM |  |
| CCCC[C@@H](COc1ccc(-c2cc3ccccc3o2)cc1)Nc1ccc(C(=O)NCCC(=O)O)cc1 [Compound 1-10, (S)-3-(4-((1-(4-(benzofuran-2-yl)phenoxy)hexan-2-yl)amino)benzamido) propanoic Acid] |  | 0.122 µM | 0.6298 µM |  |  |
| CC(C)[C@@H](COc1ccc(-c2cc3ccccc3o2)cc1)Nc1ccc(C(=O)NCCC(=O)O)cn1 [Compound 4-2, (S)-3-(6-((1-(4-(benzofuran-2-yl)phenoxy)-3-methylbutan-2-yl)amino)nicotinamido)propanoic Acid] |  | 0.09 µM | 0.1213 µM |  |  |
| CC(C)NC(=O)[C@@H](Cc1ccc(-c2cc3ccccc3o2)cc1)Nc1ccc(C(=O)NCCC(=O)O)cc1 [Compound 24-22, (R)-3-(4-((3-(4-(benzofuran-2-yl)phenyl)-1-(isopropylamino)-1-oxopropan-2-yl)amino)benzamido)propanoic Acid] | 17.6 µM |  |  | 9.522 µM |  |
| CC(C)[C@@H](COc1ccc(-c2ccc(Cl)cc2Cl)c(F)c1)Nc1ccc(C(=O)NCCC(=O)O)cc1 [Compound 8-9, (S)-3-(4-((1-((2′,4′-dichloro-2-fluoro-[1,1′-biphenyl]-4-yl)oxy)-3-methylbutan-2-yl)amino)benzamido)propanoic Acid] |  | 0.145 µM | 0.365 µM |  |  |
| CCC(C)[C@H](Nc1ccc(C(=O)NCCC(=O)O)cc1)c1nnc(-c2ccc(C(C)(C)C)cc2)o1 (stereo partly drawn) [Compound 20-3, 3-(4-(((1S)-1-(5-(4-(tert-butyl)phenyl)-1,3,4-oxadiazol-2-yl)-2-methylbutyl)amino)benzamido)propanoic Acid] | 0.801 µM |  |  | 9.163 µM |  |
| CCOC(=O)CCNC(=O)c1ccc(N[C@H](COc2ccc(-c3nc4ccccc4o3)cc2)C(C)C)cc1 [Compound 1-47, Ethyl (S)-3-(4-((1-(4-(benzo[d]oxazol-2-yl)phenoxy)-3-methylbutan-2-yl)amino)benzamido)propanoate] |  | > 30 µM | 0.17 µM |  | inhibition at 30 µM ([1]; compound at the concentration of 30 μM, read-out: percentage of inhibition (binding)): 56% |
| COc1cnc(-c2ccc([C@@H](COc3ccc(-c4cc5ccccc5o4)cn3)Nc3ccc(C(=O)NCCS(=O)(=O)O)cc3)cc2)nc1 [Compound 15-35, (S)-2-(4-((2-((5-(benzofuran-2-yl)pyridin-2-yl)oxy)-1-(4-(5-methoxypyrimidin-2-yl)phenyl)ethyl)amino)benzamido)ethane-1-sulfonic Acid] | 0.584 µM |  |  | >30 µM |  |
| CC(C)[C@@H](COc1ccc(-c2cc3ccccc3o2)cc1)Nc1cnc(C(=O)NCCC(=O)O)cn1 [Compound 9-1, (S)-3-(5-((1-(4-(benzofuran-2-yl)phenoxy)-3-methylbutan-2-yl)amino)pyrazino-2-carboxamido)propanoic Acid] |  | 0.125 µM | 0.3861 µM |  |  |
| CC[C@H](C)[C@@H](COc1ccc(-c2ccc(C(F)(F)F)cc2)nn1)Nc1ccc(C(=O)NCCC(=O)O)cc1 [Compound 17-3, 3-(4-(((2S,3S)-3-methyl-1-((6-(4-(trifluoromethyl)phenyl)pyridazin-3-yl)oxy)pentan-2-yl)amino)benzamido)propanoic Acid] |  | 0.989 µM | 1.307 µM |  |  |
| CC(C)[C@@H](COc1ccc(-c2cc3ccccc3o2)nc1)Nc1ccc(C(=O)NCCC(=O)O)cn1 [Compound 11-2, (S)-3-(6-((1-((6-(benzofuran-2)pyridin-3-yl)oxy)-3-methylbutan-2-yl)amino)nicotinamido)propanoic Acid] |  | 0.926 µM | 14.398 µM |  |  |
| CCOC(=O)CCNC(=O)c1ccc(N[C@H](Cc2ccc(-c3ccc(C(C)(C)C)cc3)cc2)C(=O)Nc2ccc(OC(F)(F)F)cc2)cc1 [Compound 24-25, Ethyl (R)-3-(4-((3-(4′-(tert-butyl)-[1,1′-biphenyl]-4-yl)-1-oxo-1-((4-(trifluoromethoxy)phenyl)amino)propan-2-yl)amino)benzamido)propanoate] | 0.226 µM |  |  |  | IC50 cAMP ([2]; uM): >10 µM |
| CCCOC[C@H](Cc1ccc(-c2cc3ccccc3o2)cc1)Nc1ccc(C(=O)NCCC(=O)O)cc1 [Compound 19-26, (S)-3-(4-((1-(4-(benzofuran-2-yl)phenyl)-3-propoxypropan-2-yl)amino)benzamido)propanoic Acid] | 0.592 µM |  |  | 0.9028 µM |  |
| CCCC[C@@H](COc1ccc(-c2cc(Cl)cc(Cl)c2)nc1)Nc1ccc(C(=O)NCCC(=O)O)cc1 [Compound 10-10, (S)-3-(4-((1-((6-(3,5-dichlorophenyl)pyridin-3-yl)oxy)hexan-2-yl)amino)benzamido) propanoic Acid] |  | 0.314 µM | 0.493 µM |  |  |
| CC(C)[C@@H](COc1ccc(-c2cc3ccccc3o2)cn1)Nc1ccc(C(=O)NCCC(=O)O)cc1 [Compound 15-3, (S)-3-(4-((1-((5-(benzofuran-2-yl)pyridin-2-yl)oxy)-3-methylbutan-2-yl)amino)benzamido)propanoic Acid] | 0.051 µM |  |  | 0.111 µM |  |
